Data reported in PMC12207908, “The broad‐spectrum antimicrobial peptide BMAP‐27B potentiates carbapenems against NDM‐producing pathogens in food animals” (mLife, 2025).
No end group written: not given here.

Tests used:
CREC6 = format: in vitro ADME, Escherichia coli
Procedure: (§1) The antibacterial activity of the treated peptide was determined using CREC6 and CRKP2 as models. Bacterial colony survival was quantified by measuring the absorbance at 600 nm using a microplate reader. The activity of the peptide was also determined in the presence of NaCl to assess its salt sensitivity, with a final NaCl concentration of 400 mM. […] The bactericidal efficacy of BMAP‐27B against bacteria in SIF or SGF was evaluated using the plate counting method at different time points.

CREC6 and CRKP2 = format: in vitro ADME, Escherichia coli and Klebsiella pneumoniae
Procedure: as §1

[1] = format: binding; conditions: pH 7.4
Procedure: The detailed steps of molecular docking are provided in the Supporting Information. Microcalorimetric experiments were conducted to examine the interaction between BMAP‐27B and the divalent cation zinc (Zn^2+) using ITC to determine the binding affinity of BMAP‐27B for Zn^2+. Both BMAP‐27B and Zn^2+ were dissolved in PBS (pH 7.4). Before the experiment, all samples were degassed in a sonication bath for 10 min. At 25°C, Zn^2+ was sequentially injected into the calorimetric cell containing BMAP‐27B, with a total of 25 injections performed, allowing for a 180‐s equilibration interval between injections. The resulting data were analyzed using software to calculate K d.

BALB/c mice = test: In vivo biocompatibility; conditions: 5, 10, and 20 mg/kg intraperitoneal, once daily
Procedure: Male BALB/c mice (6–8 weeks of age, 18 ± 2 g) were purchased from Tengxin Biotechnology Co., Ltd., for the animal studies. Healthy male BALB/c mice were randomly divided into four groups, with six mice per group. Mice in the three experimental groups received intraperitoneal injections of peptide solutions at doses of 5, 10, and 20 mg/kg, while the control group received injections of PBS. Injections were administered once daily for five consecutive days, and the body weight of each mouse was recorded daily. On the sixth day, the mice were euthanized under deep anesthesia and blood samples were collected for biochemical analysis, including AST, CREA, UREA, and ALT. The livers and kidneys were subsequently weighed, fixed in 4% paraformaldehyde, and subjected to histopathological examination using H&E staining.

bacterial suspension = test: Antimicrobial activity in varying concentrations of proteases and serum; format: in vitro ADME; conditions: trypsin or proteinase K, 1:1 (v/v) incubation 1 h, diluted to 2×MIC, then 18-24 h at 37℃ with bacteria (Figure S1)
Procedure: The above mixture was added to the bacterial suspension and incubated at 37℃ for 18-24 hours. Finally, the absorbance of […] was measured and used to calculate the survival rate of bacteria.

Acinetobacter baumannii = format: cell-based
Procedure: The MIC of BMAP‐27B and other antibiotics was determined using the broth microdilution method, following the guidelines established by the Clinical and Laboratory Standards Institute (CLSI). Briefly, the bacterial cultures were grown to the logarithmic growth phase and subsequently diluted in Mueller–Hinton broth (MHB) to achieve a final concentration of 1 × 10^6 CFU/ml. BMAP‐27B and the other antibiotics were prepared in twofold serial dilutions in MHB and mixed with an equal volume of bacterial suspension in 96‐well polypropylene microtiter plates.

## GRFKRLRKKLKKLFKKLSPVIPLLHLG [BMAP-27B]
CREC6
  activity in simulated intestinal fluid (SIF): no activity
  viable bacterial count after incubation with simulated gastric fluid (SGF): lower than that of the control group
CREC6 and CRKP2
  efficacy after co‐incubation with fetal bovine serum: maintained considerable efficacy
[1]
  Kd: 31.36 µM
BALB/c mice
  relative weights of the heart, liver, spleen, and kidneys: no significant differences
Bacterial suspension
  protease concentration resulting in loss of activity: above 200 μg/ml
Acinetobacter baumannii
  MIC: ≤ 6.250 µg/mL
